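Cultured in 96-well plates, cells were exposed to test compound for 48 hours across five concentrations. Abbreviation: GI50, concentration required for 50% inhibition of growth.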 The source made the active and inactive calls. Rule as the data show it: active = GI50 up to about 1.1 µM and inactive = higher. Bounds are passed on as bounds.

These results are taken from ChEMBL document CHEMBL1201862, “PubChem BioAssay data set” (2004).

Holding throughout (assay): DTP human tumour cell line panel, 48 h
Assay [1] relates to TK-10.
Assay [2] has as its system PC-3.
Assay [3] relates to SNB-75.
Assay [4] has as its system 786-0.
Assay [5] relates to MDA-MB-435.
In assay [6] the test system is RXF 393.
Assay [7] concerns MDA-MB-231.
The test system of assay [8] is SK-OV-3.
Assay [9] concerns OVCAR-8.
The subject of assay [10] is U-251.
Assay [11] deals with NCI-H460.
Assay [12] relates to DU-145.
The test system of assay [13] is OVCAR-4.
Assay [14] deals with SF-539.
Assay [15] relates to ACHN.
The test system of assay [16] is KM12.
The subject of assay [17] is SF-295.
Assay [18] deals with SNB-19.
In assay [19] the test system is SW-620.
In assay [20] the test system is CCRF-CEM.

On to `O=[As]O`, for which the GI50 (as a rule, the concentration giving 50% growth inhibition) in [1] is > 100 µM (inactive); in assay [2], > 100 µM (inactive); in assay [3] it was > 51.1 µM (inactive); in [4], > 57.3 µM (inactive); in assay [5], > 100 µM (inactive); in assay [6], > 32.9 µM (inactive). Besides, the GI50 was > 100 µM (inactive) in [7]; > 100 µM (inactive) in [8]; > 43.8 µM (inactive) in assay [9]; 23.2 µM (inactive) in assay [10]; > 100 µM (inactive) in [11]; > 100 µM (inactive) in assay [12]. Besides, the GI50 in assay [13] was > 91.6 µM (inactive); in assay [14], 22.8 µM (inactive); in assay [15], > 100 µM (inactive); in assay [16], > 100 µM (inactive); in assay [17], > 81.1 µM (inactive); in assay [18] it was > 67.5 µM (inactive). Besides, the GI50 in [19] is > 64.1 µM (inactive); in assay [20], 15.6 µM (inactive).
Turning to `Cc1ccc(-c2nc(-c3nccc4ccccc34)oc2-c2ccccc2)cc1`, the GI50 in assay [1] was 66.8 µM (inactive); in assay [2], > 100 µM (inactive); in [3] it was 31.6 µM (inactive); in assay [4], 26.6 µM (inactive); in [5] it was 64.9 µM (inactive); in assay [6] it was 33.4 µM (inactive). Moreover, the GI50 was > 100 µM (inactive) in assay [7]; 68.9 µM (inactive) in assay [8]; 79.1 µM (inactive) in assay [9]; 72.9 µM (inactive) in [10]; 26.7 µM (inactive) in [11]; 63.2 µM (inactive) in assay [12]. Also, the GI50 in assay [13] is > 100 µM (inactive); in [14] it was 46 µM (inactive); in assay [15], 92.9 µM (inactive); in [16], 43.1 µM (inactive); in assay [17], 68.4 µM (inactive); in assay [18], > 100 µM (inactive). In addition, the GI50 in assay [19] was 88.3 µM (inactive); in assay [20], 84.1 µM (inactive).
`C=CCN1C(=O)/C(=C/c2ccccc2)N=C1SC/C=C/C`: the GI50 in assay [1] is 79.1 µM (inactive); in assay [2], 22.3 µM (inactive); in [3] it was 46.2 µM (inactive); in [4], 42.7 µM (inactive); in [5], 40.8 µM (inactive); in assay [6], 15.2 µM (inactive). The GI50 in [7] is 86.7 µM (inactive); in [8], > 100 µM (inactive); in assay [9] it was 45.1 µM (inactive); in assay [10] it was 48.1 µM (inactive); in assay [11] it was 43.8 µM (inactive); in assay [12], 57.5 µM (inactive). For the same compound, the GI50 is 31.2 µM (inactive) in assay [13]; > 100 µM (inactive) in assay [14]; 80.4 µM (inactive) in assay [15]; 37.4 µM (inactive) in assay [16]; 61.2 µM (inactive) in assay [17]; > 100 µM (inactive) in assay [18]. In addition, the GI50 was 46.1 µM (inactive) in assay [19] and 27.9 µM (inactive) in assay [20].
Consider `Cc1ccc(S(=O)(=O)Nn2c(S)c(C#N)c(-c3ccc(Cl)cc3)c(C#N)c2=O)cc1`, for which the GI50 was 25.6 µM (inactive) in [1]; 24.4 µM (inactive) in [2]; 33.8 µM (inactive) in assay [3]; 32.6 µM (inactive) in assay [4]; 27.1 µM (inactive) in [5]; 32.3 µM (inactive) in assay [6]. In addition, the GI50 in assay [7] was 36.2 µM (inactive); in [8], 61 µM (inactive); in assay [9], 22 µM (inactive); in assay [10], 22.2 µM (inactive); in assay [11], 17 µM (inactive); in assay [12], 52.2 µM (inactive). Further, the GI50 in assay [13] was 15.1 µM (inactive); in assay [14], 19.6 µM (inactive); in assay [15] it was 31.6 µM (inactive); in assay [16], 36.2 µM (inactive); in assay [17] it was 32.9 µM (inactive); in [18] it was 35.4 µM (inactive). Also, the GI50 in assay [19] was 22.4 µM (inactive); in [20], 7.93 µM (inactive).
As for `COC(=O)[C@]1(C)CCC[C@]2(C)[C@H]3CC[C@]4(C(C)C)OO[C@@H](O4)[C@]34O[C@@H]4C[C@H]21`, the GI50 was 4.88 µM (inactive) in [1]; 1.48 µM (inactive) in [2]; 3.87 µM (inactive) in assay [3]; 1.6 µM (inactive) in assay [4]; 1.79 µM (inactive) in assay [5]; 4.28 µM (inactive) in [6]. Moreover, the GI50 in assay [7] is 4.11 µM (inactive); in assay [8] it was 2.32 µM (inactive); in [9] it was 3.61 µM (inactive); in assay [10], 3.65 µM (inactive); in assay [11], 1.88 µM (inactive); in [12], 1.64 µM (inactive). In addition, the GI50 was 1.85 µM (inactive) in assay [13]; 10.6 µM (inactive) in [14]; 0.56 µM (active) in assay [15]; 2.86 µM (inactive) in [16]; 3.63 µM (inactive) in assay [17]; 10.8 µM (inactive) in assay [18]. Moreover, the values for the GI50 in assay [19] and in [20] were 3.1 µM (inactive) and 0.5 µM (active), respectively.
For the compound `O=c1[nH]cnc2c1ncn2C1SC(CO)C(O)C1O` (stereo not given), the GI50 in assay [1], in assay [2], in assay [3], in assay [4], in assay [5] and in assay [6] was > 100 µM (inactive) each time. The GI50 in assay [7], in [8], in assay [9], in assay [10], in assay [11] and in assay [12] was > 100 µM (inactive) each time. Further, the GI50 in [13], in assay [14], in assay [15], in assay [16], in assay [17] and in assay [18] was > 100 µM (inactive) in each case. Also, the GI50 in [19] and in assay [20] was > 100 µM (inactive) each time.
Regarding `Cc1cc(C)c(S(=O)(=O)N2CCCN(S(=O)(=O)c3c(C)cc(C)cc3C)OCCCON(S(=O)(=O)c3c(C)cc(C)cc3C)CCCN(S(=O)(=O)c3c(C)cc(C)cc3C)OCCCO2)c(C)c1`, the GI50 in assay [1] was > 100 µM (inactive); in [2] it was > 100 µM (inactive); in assay [3], 70.3 µM (inactive); in assay [4], > 100 µM (inactive); in [5] it was > 100 µM (inactive); in [6], 61.1 µM (inactive). Further, the GI50 in assay [7], in [8], in [9], in assay [10], in [11] and in [12] was > 100 µM (inactive) each time. Moreover, the GI50 in [13], in [14], in assay [15], in assay [16], in [17] and in [18] was > 100 µM (inactive) throughout. Also, the GI50 in assay [19] and in [20] was > 100 µM (inactive) throughout.
